Experimental data reported in ChEMBL document CHEMBL1128885, “Resolution and comparative anti-HIV evaluation of the enantiomers of calanolides A and B” (Bioorg Med Chem Lett, 1995).

Tests used:
[1] = system: Human immunodeficiency virus 1; assay: Effective concentration required for in vitro inhibitory activity against HIV-1; IA is Inactive; format: functional, organism-based
[2] = system: Human immunodeficiency virus 1; assay: Effective concentration required for in vitro inhibitory activity against HIV-1; format: functional, organism-based

Row | Structure (SMILES) | EC50 [1] | EC50 [2]
1 | CCCc1cc(=O)oc2c3c(c4c(c12)OC(C)(C)C=C4)O[C@H](C)[C@@H](C)[C@H]3O [(+)-CALANOLIDE B] | Not Active | –
2 | CCCc1cc(=O)oc2c3c(c4c(c12)OC(C)(C)C=C4)O[C@@H](C)[C@H](C)[C@H]3O [(-)-CALANOLIDE A] | Not Active | –
3 | CCCc1cc(=O)oc2c3c(c4c(c12)OC(C)(C)C=C4)O[C@H](C)[C@@H](C)[C@@H]3O [CALANOLIDE A] | – | 200 nM
4 | CCCc1cc(=O)oc2c3c(c4c(c12)OC(C)(C)C=C4)O[C@@H](C)[C@H](C)[C@@H]3O [COSTATOLIDE] | – | 300 nM
